Test results: US11066399B2, “Ferroportin inhibitors” (Vifor (International) AG, priority 2015, dated 2021)

Tests used:
[1] = target: T1, human Fpn (Homo sapiens, UniProt Q9NP59); assay: Biophysical Ferroportin-Hepcidin Binding Assay (fluorescence polarization); conditions: average (AVE) of multiple measurements; TMR-hepcidin binding to purified human Fpn; read-out: FP IC50
T1 construct: FLAG (C); made in house; host or cells: Pichia pastoris
T1 sequence (Q9NP59 1-571): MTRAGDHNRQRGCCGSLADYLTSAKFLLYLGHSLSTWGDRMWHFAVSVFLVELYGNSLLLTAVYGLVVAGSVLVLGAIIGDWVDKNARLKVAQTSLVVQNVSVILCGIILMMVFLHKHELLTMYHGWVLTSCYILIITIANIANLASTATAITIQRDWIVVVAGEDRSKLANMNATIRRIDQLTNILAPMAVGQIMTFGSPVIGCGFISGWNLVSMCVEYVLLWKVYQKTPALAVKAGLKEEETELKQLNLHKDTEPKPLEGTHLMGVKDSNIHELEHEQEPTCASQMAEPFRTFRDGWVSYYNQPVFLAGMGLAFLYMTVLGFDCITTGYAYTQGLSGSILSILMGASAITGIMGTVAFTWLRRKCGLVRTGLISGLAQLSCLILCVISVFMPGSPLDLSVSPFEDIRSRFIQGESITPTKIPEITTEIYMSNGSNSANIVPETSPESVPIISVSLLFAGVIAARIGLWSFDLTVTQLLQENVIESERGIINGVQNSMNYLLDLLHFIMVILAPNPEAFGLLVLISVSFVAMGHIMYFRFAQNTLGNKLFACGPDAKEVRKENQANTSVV
Protocol: This biophysical assay was developed to confirm inhibition of hepcidin binding to ferroportin (Fpn) more directly. Incubation of TMR-hepcidin with purified human Fpn isolated from Pichia pastoris yeast cells expressing human Fpn with a C-terminal FLAG affinity tag (Bonaccorsi di Patti, 2014) leads to increased fluorescence polarization (FP) of the TMR-hepcidin ligand. Small molecular weight Fpn inhibitors were tested for inhibition of binding of TMR-hepcidin to Fpn, as detected by dose-dependent decrease of the TMR FP signal, as described in detail below.
A mixture of […] human Fpn and 30 nM TMR-hepcidin in FP assay buffer containing 50 mM Tris-HCl pH 7.3, 200 mM NaCl, 0.02% DDM, 0.1% BSA was plated into a 384 well black low volume round bottom plate (Corning, Cat. 3677) at 16 μl per well. 8 μl of serial dilutions of test compounds were added in duplicates to reach final Fpn and TMR-hepcidin concentrations of […] and 20 nM, respectively. Plates were incubated for 90 minutes at room temperature and parallel (S) and perpendicular (P) fluorescence was measured in a Synergy H1 fluorescence reader (BioTek). FP values were calculated in mP according to the following formula.

[2] = target: T2, ferroportin (Fpn) (Mus musculus, UniProt Q9JHI9); assay: Hepcidin Internalization Assay (J774); type: cell-based; conditions: average (AVE) of multiple measurements; TMR-hepcidin 25 nM, J774 cells
T2 construct: host or cells: J774 mouse macrophage cell line, Fe(III)-NTA induced
T2 sequence (Q9JHI9 1-570): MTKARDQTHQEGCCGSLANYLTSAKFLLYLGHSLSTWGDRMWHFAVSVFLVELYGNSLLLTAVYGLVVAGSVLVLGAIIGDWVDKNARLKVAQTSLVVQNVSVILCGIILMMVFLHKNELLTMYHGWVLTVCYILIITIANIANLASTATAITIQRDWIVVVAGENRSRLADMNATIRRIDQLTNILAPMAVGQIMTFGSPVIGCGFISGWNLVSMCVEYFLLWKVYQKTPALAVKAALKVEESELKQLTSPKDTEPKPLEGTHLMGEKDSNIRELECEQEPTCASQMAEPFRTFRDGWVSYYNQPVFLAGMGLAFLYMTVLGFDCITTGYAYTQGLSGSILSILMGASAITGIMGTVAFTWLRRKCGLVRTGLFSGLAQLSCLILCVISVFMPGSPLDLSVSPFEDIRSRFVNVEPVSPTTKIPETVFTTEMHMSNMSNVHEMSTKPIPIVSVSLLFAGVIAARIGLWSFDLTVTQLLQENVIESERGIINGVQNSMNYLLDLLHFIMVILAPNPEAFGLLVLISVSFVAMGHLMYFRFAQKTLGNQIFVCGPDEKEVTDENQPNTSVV
Source text: This cellular assay allows quantification of the binding of hepcidin to ferroportin (Fpn) through microscopic detection of internalization of a fluorescently labeled hepcidin into J774 cells. […] Binding of hepcidin to Fpn triggers internalization and degradation of both hepcidin and Fpn. However, the TMR (6-carboxytetramethylrhodamine) fluorophore attached to hepcidin remains associated with the cell after degradation of the hepcidin peptide backbone. Therefore, microscopic detection of cell-associated TMR fluorescence is a measure of hepcidin binding to Fpn and internalization of hepcidin and Fpn. If TMR-hepcidin is prevented from binding to Fpn, cellular TMR fluorescence remains low (Dürrenberger et al, 2013). The effect of small molecular weight Fpn inhibitor compounds in this assay was evaluated in vitro as described below.
After overnight incubation, cells were washed 3 times with pre-warmed DMEM w/o phenol red, 30 μl/well of DMEM w/o phenol red was added after the final wash and 10 μl/well of dilution series of test compounds were added in triplicates. […] Cells were incubated in a total volume of 50 μl at 37° C. with 5% CO2 for 2 hours, then Hoechst 33342 dye was added to a final concentration of 0.5 μg/ml to stain nuclei and further incubated for 10 min. at 37° C. with 5% CO2. Cells were washed 3 times with PBS and fixed in 100 μl of 4% paraformaldehyde in PBS for 15 min. at room temperature. After removal of the paraformaldehyde solution, cells were washed 3 times with PBS leaving 100 μl per well and the plates were sealed with foil plate seal. TMR (530-550 nm excitation/575-625 nm emission/400 ms exposure time) and Hoechst 33342 (360-370 nm excitation/420-460 nm emission/10 ms exposure time) fluorescence images were acquired using a ScanR plate imager (Olympus) with a 20× high NA objective. Four pictures were acquired per well and fluorescence channel covering ca. 1500 cells per well. The acquired image data was analysed with the ScanR image analysis software. Image analysis included detection of nuclei (Hoechst 33342 fluorescence), identification of cell-associated regions, application of a virtual channel and thresholding for rolling-ball-type background reduction, followed by application of the Sum(Mean) algorithm to measure the TMR fluorescence associated with cells as a quantitative measure for internalized TMR-hepcidin. IC50 values were calculated with the Sum(Mean) raw data using “log(inhibitor) vs. response” curve fitting of Prism 5 software (GraphPad Software Inc., version 5.02).

O=C(NCc1ncccc1F)c1cnc(CCNCCc2nc3ccccc3[nH]2)o1 [Example 1]
IC50 [1]: 16 nM | IC50 [2]: 12 nM

O=C(NCc1ncccc1F)c1cnc(C2CN(CCc3nc4ccccc4[nH]3)C2)o1 [Example 2]
IC50 [1]: 17 nM | IC50 [2]: 35 nM

O=C(NCc1ncccc1F)c1csc(CCNCc2nc3ccccc3[nH]2)n1 [Example 40]
IC50 [1]: 68 nM | IC50 [2]: 49 nM

O=C(NCc1ncccc1F)c1cnn(CCNCCc2cc3ccccc3[nH]2)c1 [Example 277]
IC50 [2]: 11 nM
